Measured values from patent US9562053B2, “Benzo-fused heterocyclic derivatives useful as agonists of GPR120” (Janssen Pharmaceutica NV, priority 2013, dated 2017).

Target: T1, Human GPR120 short form (Homo sapiens, UniProt Q5NUL3)
T1 construct: expressed in transfected cells
T1 sequence (Q5NUL3 1-361): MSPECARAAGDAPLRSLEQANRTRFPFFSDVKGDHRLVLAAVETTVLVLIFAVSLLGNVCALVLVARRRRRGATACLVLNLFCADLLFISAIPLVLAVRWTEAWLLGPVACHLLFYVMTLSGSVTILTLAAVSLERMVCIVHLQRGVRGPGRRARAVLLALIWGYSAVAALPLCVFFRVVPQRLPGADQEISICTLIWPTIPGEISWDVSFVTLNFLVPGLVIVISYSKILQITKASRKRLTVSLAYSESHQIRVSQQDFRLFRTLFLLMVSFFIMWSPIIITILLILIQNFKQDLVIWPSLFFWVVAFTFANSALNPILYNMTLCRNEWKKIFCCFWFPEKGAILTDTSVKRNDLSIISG
Assay: Human GPR120 in Calcium Flux Assay, Procedure Calcium B (4200 cells/well)
Assay type: cell-based
Source text: This in vitro assay serves to assess test compound agonist activity against the short splice variant (SVS with Accession number NM_001195755.1 confirmed by sequencing data) of the GPR120 receptor. The Human Short splice variant #2 (NM_001195755.1) is missing an in-frame coding exon compared to variant 1 (the Human Long splice variant NM_181745.3), resulting in a shorter isoform (GPR120-S) lacking a 16 aa protein segment compared to isoform GPR120-L. The assay platform utilizes HEK-293 cells stably transfected to express the Human GPR120 short form. These cells are first loaded with the Ca^+2 sensitive dye, Fluo-4 NW. Upon stimulation, intracellular released Ca^+2 can bind to the dye and alter its fluorescence intensity. This increase in fluorescence signal, and thus the flux in intracellular [Ca^+2], is detected and quantitated by fluorescence imaging using a FLIPR reader. The effect of the agonist is measured as a function of concentration and used to calculate an EC50 based upon a response curve.
In this procedure 4200 cells/well were employed.
A Human GPR120 clone (Genbank accession number NM_001195755.1) was placed into the pcDNA3.1 mammalian expression vector carrying the neomycin resistance gene. A stable mammalian cell was generated by placing the above clone into a HEK293 background. Clonal cells responding to long chain fatty acids had expression levels of GPR120 confirmed by RT-qPCR. Human HEK-GPR120 cells were cultured in Dulbecco's Modified Eagle's Medium (DMEM)/F12 medium supplemented with 10% fetal bovine serum (FBS), 1% L-Glutamine and 1% penicillin/streptomycin and 0.5 mg/ml G-418. Cells were split 2 times a week to keep the cells in the log-phase growth.
In preparation for the assay, HEK cells stably transfected with Human GPR120 (2.5K cells per well in 25 uL growth medium) were seeded into 384-well plates and then incubated overnight (37° C., 5% CO2). The next day, the media was changed to 20 μl assay buffer and the cell starved for 1 h at 37° C. The dye loading solution (2× dye) was prepared using 10 ml assay buffer, 100 μl of 250 mM probenecid, 1 bottle of Component A, and 20 μl of dye in DMSO. Twenty μl of the 2× dye loading buffer was then added to each well. The plates were incubated at 37° C. for 30 min, then at room temperature for an additional 15 minutes, before performing the assay on FLIPR.
Test compounds were prepared in assay buffer (2 μl of test compound+198 μl assay buffer, final DMSO in assay plate is 0.2%) at the desired concentration, more particularly at 100 μM, 50 μM, 25 μM, 12.5 μM, 6.25 μM, 3.125 μM, 1.562 μM, 0.781 μM, 0.391 μM, 0.195 μM, 0.098 μM, 0.049 μM, 0.024 μM and 0.012 μM.
The assay was performed on a FLIPR plate reader using the following parameters. Baseline was read for 10 seconds at 1 sec intervals. The program was set to transfer 10 μL of ligand from compound plate to cell plate after baseline reading. Aspiration was executed at: 10 μl/sec speed, 4.6 μl height; Dispensing was executed at: 30 μl/sec speed, 45 μl height. After compound addition, each well was read for 300 sec, with measurements collected at 1 sec intervals.
The kinetic data from the FLIPR was based upon a 5 minute window for data collection. The fluorescence of each sample well was used for individual calculations of a normalized RFU value, which was defined as maximum response minus the minimum response. The normalized fluorescence reading (RFU) was calculated as follows: RFU=Fmax−Fmin
The data were fitted to a sigmoidal dose-response curve with a variable Hill slope (<2) using nonlinear regression with GraphPad Prism 5.0 to calculate the EC50 values. The Fitting Equation was: Y=Bottom+(Top−Bottom)/(1+10^((LogEC50−X)*HillSlope)), where X is the log of the concentration and Y is the response.

**Q.** For `Cc1cc2cc(OC(F)(F)F)cc(COc3ccc(CCC(=O)O)c(C)c3C)c2o1` [Compound 36, 3-(2,3-Dimethyl-4-{[2-methyl-5-(trifluoromethoxy)-1-benzofuran-7-yl]methoxy}phenyl)propanoic acid], which EC50 is on record?
**A.** 12 nM
